# Experimental data from BindingDB's records for doi:10.1074/jbc.M113.528695 (St. Paul's Hospital's Centre of Heart and Lung …, 2014).
# Molecular target: T1, Nitric oxide synthase, endothelial (Bos taurus, UniProt P29473)
# T1 sequence (P29473 whole entry): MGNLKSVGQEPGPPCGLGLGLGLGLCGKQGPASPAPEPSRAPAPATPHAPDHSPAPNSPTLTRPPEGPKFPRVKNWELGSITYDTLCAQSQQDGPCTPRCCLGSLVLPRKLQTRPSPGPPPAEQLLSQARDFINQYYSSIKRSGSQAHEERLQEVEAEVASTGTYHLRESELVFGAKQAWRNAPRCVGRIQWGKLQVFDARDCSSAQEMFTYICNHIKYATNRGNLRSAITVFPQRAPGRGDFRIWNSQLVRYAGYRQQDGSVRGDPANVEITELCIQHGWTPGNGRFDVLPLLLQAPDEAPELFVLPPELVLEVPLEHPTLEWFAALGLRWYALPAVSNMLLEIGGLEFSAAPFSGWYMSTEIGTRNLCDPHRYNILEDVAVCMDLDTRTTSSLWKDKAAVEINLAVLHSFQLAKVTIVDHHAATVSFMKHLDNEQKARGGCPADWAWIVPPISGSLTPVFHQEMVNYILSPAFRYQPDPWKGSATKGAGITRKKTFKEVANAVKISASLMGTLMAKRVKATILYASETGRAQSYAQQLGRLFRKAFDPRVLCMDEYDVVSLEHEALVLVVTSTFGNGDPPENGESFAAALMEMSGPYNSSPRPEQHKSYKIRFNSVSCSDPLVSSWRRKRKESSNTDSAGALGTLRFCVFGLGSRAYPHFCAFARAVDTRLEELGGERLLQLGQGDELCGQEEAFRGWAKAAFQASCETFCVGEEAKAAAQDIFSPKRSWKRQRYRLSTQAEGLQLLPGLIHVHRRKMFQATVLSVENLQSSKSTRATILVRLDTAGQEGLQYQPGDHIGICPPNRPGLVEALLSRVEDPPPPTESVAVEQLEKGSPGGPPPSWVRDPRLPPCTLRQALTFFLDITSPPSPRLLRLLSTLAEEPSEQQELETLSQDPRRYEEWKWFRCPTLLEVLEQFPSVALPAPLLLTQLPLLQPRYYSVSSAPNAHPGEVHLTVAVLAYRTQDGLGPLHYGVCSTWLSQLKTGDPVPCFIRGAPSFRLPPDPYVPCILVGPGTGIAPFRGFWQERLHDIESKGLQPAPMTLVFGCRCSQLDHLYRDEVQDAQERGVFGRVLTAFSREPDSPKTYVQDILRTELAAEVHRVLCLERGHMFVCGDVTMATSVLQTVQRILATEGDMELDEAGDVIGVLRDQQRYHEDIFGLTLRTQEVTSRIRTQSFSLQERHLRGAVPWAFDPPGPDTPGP
# Assay: Polarization Assay
# Conditions: pH 7.5; 25 °C
# Experimental: eNOS was diluted to varying concentrations in buffer containing 50 mM inorganic phosphate, 50 mM KCl, and 5 mM DTT, pH 7.5. A spectrophotometer was used to determine the concentration of the fluorescein-labeled peptide using the extinction coefficient for fluorescein (ε492 nm = 79,000 M^-1). Peptides (100 nM) were added to samples containing varying concentrations of eNOS and incubated for 1 h at room temperature. Samples were then plated on 384-well Grenier Bio-One solid black microplates in triplicate. Polarization was measured with a Tecan Infinite M1000 Pro apparatus in fluorescent polarization mode using 470-nm excitation and 515-nm emission filters.
substance,measurement,value
H-TTATVTKYWF-OH [TTATVTKYWF],Kd,23 nM
H-TTFTVTKYWF-OH [TTFTVTKYWF],Kd,42 nM
